According to patent US9808441B2, “Dietary supplement containing alkaline electrolyte buffers” (priority 1999, dated 2017):

Assay: pH of dietary/therapeutic supplements, alkaline minerals and supplement compositions
Assay type: physicochemical
Details: for pH of alkaline mineral: lower value, 'and up depending upon the form' of the mineral
Description: It is noted that wherein pH is referred to for a dry or non-liquid material, it means where the material is mixed with a liquid, such as in the body of a user.
When an individual takes any one of these supplements with the meal, the body begins the digestion process of the supplement and the meal and the body begins to try to eliminate resulting waste due to needed raise in pH and to buffer the system. The body will utilize any buffer that can be found within the food, supplement, and after that will begin to draw the alkaline minerals from within the system itself.

[1] = dietary or therapeutic supplement prior to combination with alkaline minerals (table)

Molecule: O=C1O[C@H]([C@@H](O)CO)C(O)=C1O [Ascorbic Acid]
- pH [1]: 3.23
- pH (supplement or ingredient alone, without alkaline electrolytes (text; typical/normal value)): about 3.23

Molecule: N[C@H]1C(O)O[C@H](CO)[C@@H](O)[C@@H]1O (stereo partly drawn) [Glucosamine]
- pH [1]: 5.5

Molecule: O=C(O)c1cccnc1 [Niacin]
- pH [1]: 3.4

Molecule: [Zn] [Zinc]
- pH [1]: 3.5

Molecule: [Ca+2] [calcium]
- pH of alkaline mineral: ≥ 8.28

Molecule: [Mg+2] [magnesium]
- pH of alkaline mineral: ≥ 7.20

Molecule: [K+] [potassium]
- pH of alkaline mineral: ≥ 9.69

Molecule: Vitamin E
- pH [1]: 6.1
